ChEMBL document CHEMBL3352668, “Synthesis and antibacterial evaluation of new, unsymmetrical triaryl bisamidine compounds” (Bioorg Med Chem Lett, 2014)
In brackets after ≈: the same amount, converted by molar mass.

Columns and labels:
Bacillus anthracis = test: Antimicrobial activity against Bacillus anthracis Sterne by CLSI method; assay type: functional
Enterococcus faecalis = test: Antimicrobial activity against vancomycin-resistant Enterococcus faecalis ATCC 51575 by CLSI method; assay type: functional
Staphylococcus aureus = test: Antimicrobial activity against methicillin-resistant Staphylococcus aureus 1094 by CLSI method; assay type: functional
Klebsiella pneumoniae = test: Antimicrobial activity against Klebsiella pneumoniae 13882 by CLSI method; assay type: functional
HeLa = test: (§1) Cytotoxicity against human HeLa cells by MTS assay; assay type: cell-based; conditions: hela
Escherichia coli [1] = test: Antimicrobial activity against TolC-deficient Escherichia coli by CLSI method; assay type: functional; conditions: Escherichia coli; read-out: MIC
Pseudomonas aeruginosa [2] = test: Antimicrobial activity against mexAB-oprM deficient Pseudomonas aeruginosa PAO1 harboring by CLSI method; assay type: functional
Bacillus subtilis = test: Antimicrobial activity against Bacillus subtilis BD54 by CLSI method; assay type: functional
Escherichia coli [3] = test: Antimicrobial activity against TolC+ Escherichia coli 700 by CLSI method; assay type: functional
Pseudomonas aeruginosa [4] = test: Antimicrobial activity against Pseudomonas aeruginosa PAO1 by CLSI method; assay type: functional
[5] = as §1; assay type: cell-based; conditions: HeLa cells
[6] = Bacillus anthracis, Sterne, read-out: MIC
[7] = Enterococcus faecalis, ATCC 51575, read-out: MIC
[8] = Staphylococcus aureus, 1094, read-out: MIC
[9] = Klebsiella pneumoniae, 13882, read-out: MIC
[10] = Bacillus subtilis, BD54, read-out: MIC
[11] = Escherichia coli, 700, read-out: MIC
[12] = Pseudomonas aeruginosa, PAO1, read-out: MIC

| SMILES | MIC (Bacillus anthracis; [6]) | MIC (Enterococcus faecalis; [7]) | MIC (Staphylococcus aureus; [8]) | MIC (Klebsiella pneumoniae; [9]) | CC50 (HeLa) | MIC (Escherichia coli [1]) | MIC (Pseudomonas aeruginosa [2]) | MIC (Bacillus subtilis; [10]) | MIC (Escherichia coli [3]; [11]) | MIC (Pseudomonas aeruginosa [4]; [12]) | CC50 [5] | MIC (Bacillus anthracis) | MIC (Enterococcus faecalis) | MIC (Staphylococcus aureus) | MIC (Klebsiella pneumoniae) | MIC (Bacillus subtilis) | MIC (Escherichia coli [3]) | MIC (Pseudomonas aeruginosa [4]) |
| --- | --- | --- | --- | --- | --- | --- | --- | --- | --- | --- | --- | --- | --- | --- | --- | --- | --- | --- |
| c1cc2cc(-c3ccc(-c4cc5ccc(C6=NCCN6)cc5[nH]4)cc3)[nH]c2cc1C1=NCCN1 | 0.31 µg/mL (≈ 0.697 µM) | 0.16 µg/mL (≈ 0.36 µM) | 0.16 µg/mL (≈ 0.36 µM) | 0.24 µg/mL (≈ 0.54 µM) | 32.5 µg/mL (≈ 73.1 µM) | 0.16 µg/mL (≈ 0.36 µM) | 2.5 µg/mL (≈ 5.62 µM) | 0.12 µg/mL (≈ 0.27 µM) | 1.25 µg/mL (≈ 2.81 µM) | 7.5 µg/mL (≈ 16.9 µM) |  |  |  |  |  |  |  |  |
| c1cc2oc(-c3ccc(-c4cc5ccc(C6=NCCCN6)cc5[nH]4)cc3)cc2cc1C1=NCCCN1 | 0.08 µg/mL (≈ 0.169 µM) | 0.08 µg/mL (≈ 0.169 µM) | 0.31 µg/mL (≈ 0.655 µM) | 1.25 µg/mL (≈ 2.64 µM) |  | 0.39 µg/mL (≈ 0.824 µM) | 2.5 µg/mL (≈ 5.28 µM) | 0.08 µg/mL (≈ 0.169 µM) | 0.63 µg/mL (≈ 1.33 µM) | 2.5 µg/mL (≈ 5.28 µM) | 8.5 µg/mL (≈ 17.9 µM) |  |  |  |  |  |  |  |
| CC1CNC(c2ccc3cc(-c4ccc(-c5cc6ccc(C7=NC(C)CN7)cc6o5)cc4)[nH]c3c2)=N1 (stereo in doubt; P6b) |  |  |  |  | 7.6 µg/mL (≈ 16 µM) | 0.63 µg/mL (≈ 1.33 µM) | 80 µg/mL (≈ 169 µM) |  |  |  |  | 0.63 µg/mL (≈ 1.33 µM) | 0.63 µg/mL (≈ 1.33 µM) | 0.55 µg/mL (≈ 1.16 µM) | 5 µg/mL (≈ 10.6 µM) | 0.35 µg/mL (≈ 0.739 µM) | 1.09 µg/mL (≈ 2.3 µM) | 80 µg/mL (≈ 169 µM) |
| c1cc2cc(-c3ccc(-c4cc5ccc(C6=NCCCN6)cc5o4)cn3)[nH]c2cc1C1=NCCCN1 | 0.16 µg/mL (≈ 0.337 µM) | 0.39 µg/mL (≈ 0.822 µM) | 0.31 µg/mL (≈ 0.653 µM) | 1.56 µg/mL (≈ 3.29 µM) | 15.6 µg/mL (≈ 32.9 µM) | 0.16 µg/mL (≈ 0.337 µM) |  | 0.08 µg/mL (≈ 0.169 µM) | 1.25 µg/mL (≈ 2.63 µM) | 1.25 µg/mL (≈ 2.63 µM) |  |  |  |  |  |  |  |  |
| OC1CN=C(c2ccc3cc(-c4ccc(-c5cc6ccc(C7=NCC(O)CN7)cc6o5)cc4)[nH]c3c2)NC1 (centres undefined) | 0.55 µg/mL (≈ 1.09 µM) | 0.31 µg/mL (≈ 0.613 µM) | 0.31 µg/mL (≈ 0.613 µM) | 1.09 µg/mL (≈ 2.16 µM) |  | 0.16 µg/mL (≈ 0.316 µM) | 15 µg/mL (≈ 29.7 µM) | 0.08 µg/mL (≈ 0.158 µM) | 2.5 µg/mL (≈ 4.94 µM) | 6.3 µg/mL (≈ 12.5 µM) | 11.9 µg/mL (≈ 23.5 µM) |  |  |  |  |  |  |  |
| c1cc2cc(-c3ccc(-c4cn5ccc(C6=NCCCN6)cc5n4)cc3)[nH]c2cc1C1=NCCCN1 | 1.25 µg/mL (≈ 2.64 µM) | 1.25 µg/mL (≈ 2.64 µM) | 2.5 µg/mL (≈ 5.28 µM) | 5 µg/mL (≈ 10.6 µM) | 20.9 µg/mL (≈ 44.1 µM) | 0.31 µg/mL (≈ 0.655 µM) | > 80 µg/mL | 0.16 µg/mL (≈ 0.338 µM) | 2.5 µg/mL (≈ 5.28 µM) | 40 µg/mL (≈ 84.5 µM) |  |  |  |  |  |  |  |  |
| c1cc2cc(-c3ccc(-c4cc5ccc(C6=NCCCN6)cc5o4)cc3)[nH]c2cc1C1=NCCCN1 | 5 µg/mL (≈ 10.6 µM) | 0.39 µg/mL (≈ 0.824 µM) | 0.1 µg/mL (≈ 0.211 µM) | 0.55 µg/mL (≈ 1.16 µM) |  | 0.16 µg/mL (≈ 0.338 µM) | 0.47 µg/mL (≈ 0.992 µM) | 0.14 µg/mL (≈ 0.296 µM) | 0.63 µg/mL (≈ 1.33 µM) | 0.63 µg/mL (≈ 1.33 µM) | 26 µg/mL (≈ 54.9 µM) |  |  |  |  |  |  |  |
| c1cc2cc(-c3ccc(-c4nc5ccc(C6=NCCCN6)cc5[nH]4)cc3)[nH]c2cc1C1=NCCCN1 | 0.31 µg/mL (≈ 0.655 µM) | 0.31 µg/mL (≈ 0.655 µM) | 0.31 µg/mL (≈ 0.655 µM) | 5 µg/mL (≈ 10.6 µM) |  | 0.31 µg/mL (≈ 0.655 µM) | 2.5 µg/mL (≈ 5.28 µM) | 0.08 µg/mL (≈ 0.169 µM) | 2.5 µg/mL (≈ 5.28 µM) | 2.5 µg/mL (≈ 5.28 µM) | 27.6 µg/mL (≈ 58.3 µM) |  |  |  |  |  |  |  |
| c1cc2cc(-c3ccc(-c4cc5ccc(C6=NCCCN6)cc5s4)cc3)[nH]c2cc1C1=NCCCN1 | 0.16 µg/mL (≈ 0.327 µM) | 0.31 µg/mL (≈ 0.633 µM) | 0.31 µg/mL (≈ 0.633 µM) | 1.25 µg/mL (≈ 2.55 µM) |  | 0.31 µg/mL (≈ 0.633 µM) | 10 µg/mL (≈ 20.4 µM) | 0.1 µg/mL (≈ 0.204 µM) | 0.63 µg/mL (≈ 1.29 µM) | 10 µg/mL (≈ 20.4 µM) | 5.9 µg/mL (≈ 12 µM) |  |  |  |  |  |  |  |
| c1cc2cc(-c3ccc(-c4cn5ccc(C6=NCCN6)cc5n4)cc3)[nH]c2cc1C1=NCCN1 | > 80 µg/mL | > 80 µg/mL | > 80 µg/mL | 5 µg/mL (≈ 11.2 µM) |  | 0.31 µg/mL (≈ 0.696 µM) | > 80 µg/mL | 2.5 µg/mL (≈ 5.61 µM) | 2.5 µg/mL (≈ 5.61 µM) | 40 µg/mL (≈ 89.8 µM) | 2.5 µg/mL (≈ 5.61 µM) |  |  |  |  |  |  |  |
| c1cc2cc(-c3ccc(-c4nc5ccc(C6=NCCN6)cc5[nH]4)cc3)[nH]c2cc1C1=NCCN1 | 5 µg/mL (≈ 11.2 µM) | 0.63 µg/mL (≈ 1.41 µM) | 1.25 µg/mL (≈ 2.81 µM) | 20 µg/mL (≈ 44.9 µM) |  | 0.31 µg/mL (≈ 0.696 µM) | 40 µg/mL (≈ 89.8 µM) | 0.16 µg/mL (≈ 0.359 µM) | 10 µg/mL (≈ 22.4 µM) | 20 µg/mL (≈ 44.9 µM) | 8.6 µg/mL (≈ 19.3 µM) |  |  |  |  |  |  |  |
| c1cc2cc(-c3ccc(-c4cc5ccc(C6=NCCN6)cc5o4)cc3)[nH]c2cc1C1=NCCN1 | 0.31 µg/mL (≈ 0.696 µM) | 0.16 µg/mL (≈ 0.359 µM) | 0.16 µg/mL (≈ 0.359 µM) | 0.94 µg/mL (≈ 2.11 µM) |  | 0.24 µg/mL (≈ 0.539 µM) | 15 µg/mL (≈ 33.7 µM) | 0.16 µg/mL (≈ 0.359 µM) | 0.47 µg/mL (≈ 1.05 µM) | 10 µg/mL (≈ 22.4 µM) | 9.7 µg/mL (≈ 21.8 µM) |  |  |  |  |  |  |  |
| c1cc2cc(-c3ccc(-c4cn5cc(C6=NCCCN6)ccc5n4)cc3)[nH]c2cc1C1=NCCCN1 | 1.25 µg/mL (≈ 2.64 µM) | 0.63 µg/mL (≈ 1.33 µM) | 0.63 µg/mL (≈ 1.33 µM) | 5 µg/mL (≈ 10.6 µM) | 19.7 µg/mL (≈ 41.6 µM) | 0.31 µg/mL (≈ 0.655 µM) | 5 µg/mL (≈ 10.6 µM) | 0.08 µg/mL (≈ 0.169 µM) | 5 µg/mL (≈ 10.6 µM) | 5 µg/mL (≈ 10.6 µM) |  |  |  |  |  |  |  |  |
